Laboratory results from patent US20260021186A1, “Fatty Acid-D-Amino Acid Peptides Conjugates as Anaplerotic Compounds for Use in Treating Propionic Acidemia, Methylmalonic Acidurias, and Energy Metabolic Disorders” (University of Pittsburgh - Of the Commonwealth System of …, priority 2022, published 2026).

Assays:
[1] = test system: ETC components (UQCRC2, COXII, NDUFB8) in PA cell line Fb859 and MMA cell line Fb857; assay: Detection of ETC components by western blots; assay type: cell-based, human; settings: FIG. 11; 72 h treatment
Method: FIG. 11 are western blots showing correction in the signals of Complex III subunit Core 2 48-kDa (UQCRC2), Complex IV subunit II 22-kDa (COXII), and Complex I subunit NDUFB8 18-kDa that is most pronounced in the propionic acidemia (PA) cell line Fb859 compared to the methylmalonic aciduria (MMA) cell line Fb857.
Detection of ETC components by western blots: Same as above, media A for control, and media B for untreated and treated cells in T75 flasks. Amounts of compounds were added appropriately directly to cell culture media when the cultures were about 85-90 confluent. The cultures were allowed to grow for 72 h at 37° C./5% CO2, and then harvested. Harvested cell pellets were stored at −80° C. until immune and enzymatic assay and western blot analyses of OXPHOS subunits. One to 1.5 ml media samples were also stored at −80° C. for.

HEK293 PCCA−/− cells = assay: Propionyl-CoA alternative metabolites excreted in culture media (mass spectrometry); assay type: cell-based, human; settings: 72 hours; relative to untreated cells
Method: FIGS. 14A-14D are graphs showing the quantitation of propionyl-CoA alternative metabolites excreted in the media of FB859 patient and HEK293 PCCA^−/− cultured cells treated with PMA007 or PMA010 for 72 hours: propionylcarnitine (C3-carnitine; FIG. 14A), propionylglycine (C3-glycine; FIG. 14B), hydroxypropionylcarnitine (C3OH-carnitine; FIG. 14C), and hydroxypropionyl glycine (C3OH-glycine, FIG. 14D). Data are presented as percentage to untreated cells. In media of Fb859 cells, the control (Cntl, 0 μM) treatment with glucose and pyruvate, media propionylcarnitine was 0.17 μM, while in the untreated control, which had no glucose or pyruvate, and stripped FBS (no fat) included in the media, propionylcarnitine was 0.433 μM.
Acylcarnitine levels determination: Media from control, Fb826, and treated and untreated patient, Fb859, cells were collected from either the immunohistochemistry cultures or the Seahorse oxygen consumption 96-well plate assays and analyzed for the levels of short chain acylcarnitines plus propionylglycine and hydroxypropionylglycine using a triple quadrupole API4000 mass spectrometer (AB Sciex™, Framingham, MA) equipped with a ExionLC™ 100 HPLC system (Shimadzu Scientific Instruments™, Columbia, MD) as outlined as previously published.

## C[C@@H](NC(=O)CCCCC(=O)O)C(=O)N[C@H](Cc1c[nH]cn1)C(=O)O [PMA010, 6-(((R)-1-(((R)-1-carboxy-2-(1H-imidazol-4-yl)ethyl)amino)-1-oxopropan-2-yl)amino)-6-oxohexanoic acid]
[1]
  correction in the signals of UQCRC2, COXII and NDUFB8 (western blot): better effect compared to PMA007
HEK293 PCCA−/− cells
  reduction in hydroxypropionyl glycine in media: 80%
  reduction in propionylcarnitine in media: 59%
  reduction in propionylglycine in media: 41%
